Tests used:
cucumber downy mildew = assay: protectant activity in vivo against cucumber downy mildew
armyworm = assay: bioactivity test against armyworm, airbrush spray; type: in vivo
corn rust = assay: protectant activity in vivo against corn rust; conditions: for pest or weed control at 6.25 ppm: read-out: protectant activity against corn rust in vivo, 6.25 ppm
Diamond back moth = assay: insecticidal activity against diamond back moth, airbrush spray; type: in vivo
Method in brief: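 Airbrush leaf-disc spray test: both faces of 2 cm cabbage discs received 0.5 ml of test solution at 0.7 kg/cm^2. Solutions were made in acetone:methanol (1:1) and brought to concentration with 0.1% Tween 80 in water. Ten second-instar larvae per disc, triplicates, were held at 25° C and 60˜70% R.H., with mortality recorded at 72 hrs.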

wheat powdery mildew = assay: protectant activity in vivo against wheat powdery mildew
carmine spider mite = assay: bioactivity test against carmine spider mite, airbrush spray; type: in vivo
Method in brief: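 Broadbean seedlings infested with adult mites were sprayed with compound (acetone/methanol stock diluted in 0.1% Tween 80 water) by airbrush at 0.7 kg/cm^2, 0.5 ml. Three replicates were run. Mortality was scored after 72 hrs.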

[1] = tested on: Green peach aphids (Myzus Persicae Sulzer); assay: bioactivity test against green peach aphid, airbrush foliar spray; type: in vivo
Method in brief: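 Death rate was scored at 48 hrs, held at 25±1 C and 60±5% RH, following airbrush foliar spray (0.5 mL, 10 psi) onto cabbage leaf discs bearing about 15-30 aphids. Test solutions: compound dissolved in 1:1 acetone:methanol, brought to concentration with 0.1% tween 80 water.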

[2] = 600 ppm, mortality after 72 hrs
[3] = 100 ppm, death rate after 48 hrs
[4] = 600 ppm, death rate after 48 hrs
[5] = Tetranychus cinnabarinus, 72 h, 100 ppm, mortality after 72 hrs
[6] = 10 ppm, death rate after 48 hrs
[7] = 100 ppm, mortality after 72 hrs

FC(F)c1ncnc(NCCc2ccc(Oc3ccccc3)nc2)c1Cl [III-541]
95%: control effect against cucumber downy mildew (%) (cucumber downy mildew; 3.125 mg/L, protectant activity)
100%: control effect against cucumber downy mildew (%) (cucumber downy mildew; 6.25 mg/L, protectant activity) | control effect against cucumber downy mildew (%) (cucumber downy mildew; 12.5 mg/L, protectant activity) | control effect against cucumber downy mildew (%) (cucumber downy mildew; 25 mg/L, protectant activity) | control effect against cucumber downy mildew (%) (cucumber downy mildew; 50 mg/L, protectant activity) | control effect against cucumber downy mildew (%) (cucumber downy mildew; 100 mg/L, protectant activity) | control effect against cucumber downy mildew (%) (cucumber downy mildew; 400 mg/L, protectant activity) | protectant activity against cucumber downy mildew in vivo (cucumber downy mildew; 6.25 ppm) | protectant activity against cucumber downy mildew in vivo (cucumber downy mildew; 12.5 ppm) | protectant activity against cucumber downy mildew in vivo (cucumber downy mildew; 25 ppm) | protectant activity against cucumber downy mildew in vivo (cucumber downy mildew; 50 ppm) | protectant activity against cucumber downy mildew in vivo (cucumber downy mildew; 100 ppm) | protectant activity against cucumber downy mildew in vivo (cucumber downy mildew; 400 ppm) | control (test results against armyworm) (armyworm; 600 ppm, mortality after 72 h) | protectant activity against corn rust in vivo (corn rust; 400 ppm) | control (test results against diamond back moth) (Diamond back moth; [2]) | protectant activity against wheat powdery mildew in vivo (wheat powdery mildew; 400 ppm) | control against carmine spider mite (carmine spider mite; [2]) | control (test results against green peach aphid) [1, 3] | control (test results against green peach aphid) [1, 4]

Cc1ncnc(NCCc2ccc(Oc3ccc(C(F)(F)F)cn3)cc2)c1Cl [Compound I-6732]
80 to 99%: pest or weed control at 6.25 ppm (corn rust; Zea mays, 168 h)
100%: protectant activity against cucumber downy mildew in vivo (cucumber downy mildew; 25 ppm) | protectant activity against cucumber downy mildew in vivo (cucumber downy mildew; 100 ppm) | protectant activity against cucumber downy mildew in vivo (cucumber downy mildew; 400 ppm) | control (test results against armyworm) (armyworm; 600 ppm, mortality after 72 h) | protectant activity against corn rust in vivo (corn rust; 100 ppm) | protectant activity against corn rust in vivo (corn rust; 400 ppm) | control (test results against diamond back moth) (Diamond back moth; [2]) | protectant activity against wheat powdery mildew in vivo (wheat powdery mildew; 400 ppm) | control against carmine spider mite (carmine spider mite; [2]) | pest or weed control at 100 ppm (carmine spider mite; [5]) | control (test results against green peach aphid) [1, 6] | control (test results against green peach aphid) [1, 3] | control (test results against green peach aphid) [1, 4]

CCc1ncnc(NCCc2ccc(Oc3ccc(Cl)cc3)cc2)c1Cl [II-297]
80 to 99%: pest or weed control at 100 ppm (armyworm; 72 h, 100 ppm, mortality after 72 h) | pest or weed control at 6.25 ppm (corn rust; Zea mays, 168 h) | pest or weed control at 25 ppm (corn rust; Zea mays, 168 h, read-out: protectant activity against corn rust in vivo, 25 ppm) | pest or weed control at 6.25 ppm (wheat powdery mildew; Triticum aestivum, 168 h, read-out: protectant activity against wheat powdery mildew in vivo, 6.25 ppm)
30%: pest or weed control at 10 µg/mL (armyworm; 72 h, 10 mg/L, read-out: Insecticidal activity against armyworm (%)) | pest or weed control at 0.4 µg/mL (wheat powdery mildew; Triticum aestivum, 168 h, read-out: control effect against wheat powdery mildew (%), 0.4 mg/L, protectant activity)
90%: pest or weed control at 6.25 µg/mL (wheat powdery mildew; Triticum aestivum, 168 h, read-out: control effect against wheat powdery mildew (%), 6.25 mg/L, protectant activity)
74%: pest or weed control at 10 µg/mL (carmine spider mite; Tetranychus cinnabarinus, 72 h, 10 mg/L, contrastive test, read-out: Insecticidal activity against carmine spider mite (% ))
40%: pest or weed control at 1.6 µg/mL (wheat powdery mildew; Triticum aestivum, 168 h, read-out: control effect against wheat powdery mildew (%), 1.6 mg/L, protectant activity)
100%: pest or weed control at 25 µg/mL (cucumber downy mildew; Cucumis sativus, 168 h, read-out: control effect against cucumber downy mildew (%), 25 mg/L, protectant activity) | pest or weed control at 50 µg/mL (cucumber downy mildew; Cucumis sativus, 168 h, read-out: control effect against cucumber downy mildew (%), 50 mg/L, protectant activity) | pest or weed control at 100 µg/mL (cucumber downy mildew; Cucumis sativus, 168 h, read-out: control effect against cucumber downy mildew (%), 100 mg/L, protectant activity) | pest or weed control at 400 µg/mL (cucumber downy mildew; Cucumis sativus, 168 h, read-out: control effect against cucumber downy mildew (%), 400 mg/L, protectant activity) | pest or weed control at 25 ppm (cucumber downy mildew; Cucumis sativus, 168 h, read-out: protectant activity against cucumber downy mildew in vivo, 25 ppm) | pest or weed control at 50 ppm (cucumber downy mildew; Cucumis sativus, 168 h, read-out: protectant activity against cucumber downy mildew in vivo, 50 ppm) | pest or weed control at 100 ppm (cucumber downy mildew; Cucumis sativus, 168 h, read-out: protectant activity against cucumber downy mildew in vivo, 100 ppm) | pest or weed control at 400 ppm (cucumber downy mildew; Cucumis sativus, 168 h, read-out: protectant activity against cucumber downy mildew in vivo, 400 ppm) | pest or weed control at 600 µg/mL (armyworm; 72 h, 600 mg/L, read-out: Insecticidal activity against armyworm (%)) | pest or weed control at 600 ppm (armyworm; 72 h, 600 ppm, mortality after 72 h) | pest or weed control at 100 ppm (corn rust; Zea mays, 168 h, read-out: protectant activity against corn rust in vivo, 100 ppm) | pest or weed control at 400 ppm (corn rust; Zea mays, 168 h, read-out: protectant activity against corn rust in vivo, 400 ppm) | pest or weed control at 600 ppm (Diamond back moth; 72 h, 600 ppm, mortality after 72 hrs, read-out: control (test results against diamond back moth)) | pest or weed control at 25 µg/mL (wheat powdery mildew; Triticum aestivum, 168 h, read-out: control effect against wheat powdery mildew (%), 25 mg/L, protectant activity) | pest or weed control at 100 µg/mL (wheat powdery mildew; Triticum aestivum, 168 h, read-out: control effect against wheat powdery mildew (%), 100 mg/L, protectant activity) | pest or weed control at 400 µg/mL (wheat powdery mildew; Triticum aestivum, 168 h, read-out: control effect against wheat powdery mildew (%), 400 mg/L, protectant activity) | pest or weed control at 25 ppm (wheat powdery mildew; Triticum aestivum, 168 h, read-out: protectant activity against wheat powdery mildew in vivo, 25 ppm) | pest or weed control at 100 ppm (wheat powdery mildew; Triticum aestivum, 168 h, read-out: protectant activity against wheat powdery mildew in vivo, 100 ppm) | pest or weed control at 400 ppm (wheat powdery mildew; Triticum aestivum, 168 h, read-out: protectant activity against wheat powdery mildew in vivo, 400 ppm) | pest or weed control at 100 µg/mL (carmine spider mite; Tetranychus cinnabarinus, 72 h, 100 mg/L, contrastive test, read-out: Insecticidal activity against carmine spider mite (% )) | pest or weed control at 600 µg/mL (carmine spider mite; Tetranychus cinnabarinus, 72 h, 600 mg/L, contrastive test, read-out: Insecticidal activity against carmine spider mite (% )) | pest or weed control at 100 ppm (carmine spider mite; [5]) | pest or weed control at 600 ppm (carmine spider mite; Tetranychus cinnabarinus, 72 h, 600 ppm, mortality after 72 hrs) | pest or weed control at 2.5 µg/mL ([1]; Myzus persicae, foliar, 48 h, 2.5 mg/L, contrastive test, read-out: Insecticidal activity against peach aphid (%)) | pest or weed control at 5 µg/mL ([1]; Myzus persicae, foliar, 48 h, 5 mg/L, contrastive test, read-out: Insecticidal activity against peach aphid (%)) | pest or weed control at 10 µg/mL ([1]; Myzus persicae, foliar, 48 h, 10 mg/L, contrastive test, read-out: Insecticidal activity against peach aphid (%)) | pest or weed control at 100 µg/mL ([1]; Myzus persicae, foliar, 48 h, 100 mg/L, contrastive test, read-out: Insecticidal activity against peach aphid (%)) | pest or weed control at 600 µg/mL ([1]; Myzus persicae, foliar, 48 h, 600 mg/L, contrastive test, read-out: Insecticidal activity against peach aphid (%)) | pest or weed control at 2.5 ppm ([1]; Myzus persicae, foliar, 48 h, 2.5 ppm, death rate after 48 hrs) | pest or weed control at 5 ppm ([1]; Myzus persicae, foliar, 48 h, 5 ppm, death rate after 48 hrs) | pest or weed control at 10 ppm ([1]; Myzus persicae, foliar, 48 h, 10 ppm, death rate after 48 hrs) | pest or weed control at 100 ppm ([1]; Myzus persicae, foliar, 48 h, 100 ppm, death rate after 48 hrs) | pest or weed control at 600 ppm ([1]; Myzus persicae, foliar, 48 h, 600 ppm, death rate after 48 hrs)
95%: pest or weed control at 100 µg/mL (armyworm; 72 h, 100 mg/L, read-out: Insecticidal activity against armyworm (%))
93%: pest or weed control at 1.25 µg/mL ([1]; Myzus persicae, foliar, 48 h, 1.25 mg/L, contrastive test, read-out: Insecticidal activity against peach aphid (%))

Cc1ncnc(NCCc2ccc(Oc3ccc(C#N)cc3F)cc2)c1Cl [II-204]
20%: Insecticidal activity against diamond back moth (%) (Diamond back moth; 10 mg/L)
80%: Insecticidal activity against carmine spider mite (% ) (carmine spider mite; 5 mg/L)
47%: Insecticidal activity against armyworm (%) (armyworm; 10 mg/L)
97%: Insecticidal activity against peach aphid (%) ([1]; 2.5 mg/L, contrastive test)
60%: Insecticidal activity against carmine spider mite (% ) (carmine spider mite; 2.5 mg/L) | Insecticidal activity against peach aphid (%) ([1]; 1.25 mg/L, contrastive test)
100%: protectant activity against cucumber downy mildew in vivo (cucumber downy mildew; 25 ppm) | protectant activity against cucumber downy mildew in vivo (cucumber downy mildew; 50 ppm) | protectant activity against cucumber downy mildew in vivo (cucumber downy mildew; 100 ppm) | protectant activity against cucumber downy mildew in vivo (cucumber downy mildew; 400 ppm) | Insecticidal activity against armyworm (%) (armyworm; 100 mg/L) | Insecticidal activity against armyworm (%) (armyworm; 600 mg/L) | control (test results against armyworm) (armyworm; 100 ppm, mortality after 72 h) | control (test results against armyworm) (armyworm; 600 ppm, mortality after 72 h) | protectant activity against corn rust in vivo (corn rust; 25 ppm) | protectant activity against corn rust in vivo (corn rust; 100 ppm) | protectant activity against corn rust in vivo (corn rust; 400 ppm) | Insecticidal activity against diamond back moth (%) (Diamond back moth; 100 mg/L) | Insecticidal activity against diamond back moth (%) (Diamond back moth; 600 mg/L) | control (test results against diamond back moth) (Diamond back moth; [7]) | control (test results against diamond back moth) (Diamond back moth; [2]) | control effect against wheat powdery mildew (%) (wheat powdery mildew; 6.25 mg/L, protectant activity) | control effect against wheat powdery mildew (%) (wheat powdery mildew; 25 mg/L, protectant activity) | control effect against wheat powdery mildew (%) (wheat powdery mildew; 100 mg/L, protectant activity) | control effect against wheat powdery mildew (%) (wheat powdery mildew; 400 mg/L, protectant activity) | protectant activity against wheat powdery mildew in vivo (wheat powdery mildew; 6.25 ppm) | protectant activity against wheat powdery mildew in vivo (wheat powdery mildew; 25 ppm) | protectant activity against wheat powdery mildew in vivo (wheat powdery mildew; 100 ppm) | protectant activity against wheat powdery mildew in vivo (wheat powdery mildew; 400 ppm) | Insecticidal activity against carmine spider mite (% ) (carmine spider mite; 10 mg/L, contrastive test) | Insecticidal activity against carmine spider mite (% ) (carmine spider mite; 100 mg/L, contrastive test) | Insecticidal activity against carmine spider mite (% ) (carmine spider mite; 600 mg/L, contrastive test) | control against carmine spider mite (carmine spider mite; 10 ppm, mortality after 72 hrs) | control against carmine spider mite (carmine spider mite; [7]) | control against carmine spider mite (carmine spider mite; [2]) | Insecticidal activity against peach aphid (%) ([1]; 5 mg/L, contrastive test) | Insecticidal activity against peach aphid (%) ([1]; 10 mg/L, contrastive test) | Insecticidal activity against peach aphid (%) ([1]; 100 mg/L, contrastive test) | Insecticidal activity against peach aphid (%) ([1]; 600 mg/L, contrastive test) | control (test results against green peach aphid) ([1]; 5 ppm, death rate after 48 hrs) | control (test results against green peach aphid) [1, 6] | control (test results against green peach aphid) [1, 3] | control (test results against green peach aphid) [1, 4]
